Source: US20210402011A1, “A COMPOUND FOR THE DETECTION OF HNO IN BIOLOGICAL SYSTEMS” (COUNCIL. OF SCIENTIFIC AND INDUSTRIAL RESEARCH, priority 2016, published 2021)

What was measured:
RAW 264.7 cells [1] = assay: MTT assay, in vitro cytotoxicity on RAW 264.7 cells; type: cell-based
Method: The in vitro cytotoxicity of ER-HNO on RAW 264.7 cells were determined by conventional MTT (3-(4, 5-Dimethylthiazol-2-yl)-2, 5-diphenyltetrazolium bromide) assay. RAW 264.7 cells (5×103) were seeded in each well of a 96 well plate and cultured in a 37° C. incubator supplied with 5% CO2. Cells were maintained in DMEM medium, supplemented with 10% Foetal Bovine Serum and 100 Units of Penicillin Streptomycin antibiotics. After 24 hours the cells were treated with different concentrations of the ER-HNO in triplicates for 24 hours. After the treatment, cells were added with […] of MTT reagent. The plate was then incubated for 4 hours at 37° C. 100 μl of Isopropyl Alcohol was added to each well. Optical density was measured at 570 nm using Multiskan Go (Thermo Scientific) to find the concentration of the cell inhibition. IC50 value has been calculated to be 90 μM.
The formula used for the calculation of the MTT assay for evaluation of the cell viability was as follows:
Cell viability (%)=(Means of absorbance value of treated group/Means of absorbance value of untreated control)×100.

Hct116 cells [2] = assay: MTT assay towards live Hct116; type: cell-based
Method: (§1) An MTT assay confirmed the non-toxic nature of probe ER-HNO towards live Hct116. Therefore, ER-HNO is tested as an imaging reagent for the detection of HNO in Hct116 colon cancer. The cells are incubated with probe ER-HNO (1 μM) for 15 min at 37° C. in acetonitrile-PBS buffer (0.2:99.8, v/v) at pH 7.2 and no intracellular fluorescence is observed.

Artemia nauplii = assay: Fluorescence imaging of Artemia nauplii; type: in vivo; details: probe 1 μM 30 minutes, then HNO
Method: Imaging of Artemia nauplii by luminescence was performed using a fluorescence microscope with a 20×, 0.4 NA microscope objective (Olympus), coupled to an intensified CCD camera. The Artemia nauplii were imaged in both bright-field and epifluorescence geometries. The latter was enabled by a fluorescence filter set. The illumination intensity was about 10 W/mm^2.

RAW 264.7 cells [3] = assay: CLSM imaging of HNO in RAW 264.7 cells; type: cell-based; details: RAW 264.7, probe 1.0 μM 15 min 37° C., then AS
Method: The toxicity of the probe molecule toward live RAW 264.7 macrophages cells and cytotoxicity assays confirmed the low toxicity of the probe. The results encouraged to explore the use of the probe as an imaging reagent for the intracellular detection of HNO in these macrophage cells. Cells in DMEM culture media are incubated with ER-HNO (1.0 μM) for 15 min at 37° C. and subsequently viewed under confocal laser scanning microscope (CLSM) using a 530 nm laser as an excitation source.
RAW 264.7 cells were seeded on cover slips placed in 6 well plates. After 24 hours cells washed with DMEM medium then cells were treated with ER-HNO (1 μM) for 25 minutes. Cells were then washed thrice with culture medium and further treated with Angeli's salt (HNO donor) of different concentration for 30 min. After that cells were washed again with Phosphate Buffer Saline (3×PBS). Then cells were fixed with 4% PFA for 10 min. Again cells were washed thrice and then cover slips mounted using mounting medium. Nail paints was used to seal the coverslips mounted on the glass slides. Images were acquired by using Olympus FluoView FV-1000 Confocal Microscope.
RAW 264.7 cells were seeded on Coverslips (22 mm×22 mm, 170±5 μm square Cover glasses) placed in 6-well plates in DMEM culture medium containing (10% FBS and 1% penicillin-streptomycin) for 24 h at 37° C. 5% CO2. […]

[4] = Fluorescence emission studies for HNO detection in aq. PBS buffer-CH3CN
Method: The spectroscopic properties of ER-HNO in aq. PBS buffer medium under physiological pH medium. No significant difference is observed in the electronic spectra of ER-HNO and ER-S. In order to check the response of ER-HNO probe (10 uM) with in presence of 20 mole equivalent of various ROS and RNS (HNO, HOCl, H2O2, —OH, TBHP, NO3^−, NO2^−, benzoyl peroxide, S^2− and ascorbate) emission spectra are recorded in aq. […] A turn ON emission response is observed for probe ER-HNO, only in presence of HNO with λEms^Max=580 nm (λExt=530 nm). Moreover, no significant changes are observed in presence of different anionic, cationic as well as biothiols under identical experimental condition. The effects of pH on emission spectrum of probe ER-HNO is also investigated. […] Therefore, to explore the bio analytical application, all the studies are carried out at physiological pH medium.
An enhancement in emission signal are observed at λMax=586 nm (Φ=0.105, for λExt=530 nm) with gradual increasing [HNO] (FIG. 1B). A good linearity is observed between emission intensity and concentration of HNO in the range of 2-15 uM, with a lower detection limit of 2 μM. […] PBS buffer medium.
Stock solution of probe ER-HNO (1×10^−4M) was prepared in HPLC grade acetonitrile. All the analytes stock solution (1×10^−2M) was prepared in aqueous HEPES buffer (10 mM) medium at pH 7.2. […]

Hct116 cells [5] = assay: CLSM imaging of HNO in Hct116 cells; type: cell-based; details: Hct116, probe 1 μM 15 min, then HNO 20 μM
Method: as §1
For confocal studies, Hct116 cells (3×10^5) were seeded on cover slips placed in 6 well plates. After 24 hours, Hct116 cells were treated with ER-HNO (1 μM) for 30 minutes at 37° C. in a 5% CO2 air environment. Cells were then washed thrice with Phosphate Buffer (1×PBS) and fixed with 4% PFA for 20 minutes and washed again with IX PBS. Nail paint was used to seal the cover slips mounted on the glass slides for each well plates. Again Hct116 cells were pre-treated with ER-HNO (1 μM) for 15 minutes, then Hct116 cells were further expose to Angeli's salt (HNO donor), then cells were washed thrice with media and followed by incubation with ER-HNO (1 μM) for another 15 minutes under same conditions. Cells were again washed with 1×PBS buffer and fixed with 4% PFA for 20 minutes and washed again with 1×PBS. Confocal laser scanning microscopic (CLSM) images were acquired in Olympus Fluoview Microscope with λExt/λMon=530/573 nm.

SERCA2 = assay: Western blot monitoring of SERCA2; type: cell-based; details: HCT116 cells, Angeli's salt 10 uM, ER-HNO 30 μM, 24 hrs
Method: HCT116 cells were cultured in DMEM medium containing 10% Fetal Bovine Serum (FBS) supplemented with 100 Units of Penicillin Streptomycin antibiotics. Cells were treated with Angeli's salt 10 uM, ER-HNO 30 μM or both for 24 hrs. Prior to the treatment processes, DMEM medium was treated with N-Ethylmalemide (NEM) 1 mM and this medium was used to culture the cells. Post 24 hrs cells harvested and whole cell lysate proteins extracted. 40 ug of the proteins were resolved in SDS PAGE gel and transferred into PVDF membrane using Western Blot methods. The blot was over-night blocked with 5% Bovine Serum Albumin (BSA) at 4° C. 1:4000 dilution of SERCA2 antibody was to probe the blot for 2 hrs at room-temperature (RT). After three washes with 1×TBST, 1:4000 dilution of anti-rabbit HRP conjugated antibody was used to probe the blot for 1 hr at RT. After three washes with IX TBST, the blot was developed using auto-radiography in X-ray film.

Hct116 cells [6] = assay: Flow cytometry, DCFDA staining; type: cell-based; details: Angeli's salt 10 uM, 30 uM probe, 2 hrs
Method: For DCFDA staining, HCT116 cells were cultured in DMEM medium containing 5 mM glucose supplemented with 10% FBS and 100 Units of antibiotics. Prior to the treatment processes, DMEM medium with 1% FBS was treated with N-Ethylmalemide (NEM) 1 mM and this medium was used to culture the cells further. Cells were treated with Angeli's salt 10 uM, L 30 uM or both for 2 hrs. After treatment cells were harvested by trypsinization and washed with complete DMEM media by centrifugation. Pellet was suspended in 1 ml of PBS buffer. 10 μM DCFDA (Sigma) was added to cells followed by incubation at 37° C. 5% CO2 incubator for 45 mins. DCFDA stained cells were analyzed in BD FACS Canto II using FITC channel. For Annexin V staining cultured HCT116 cells were harvested after trypsinization and washed with 1×PBS buffer. 500 ul of Annexin V binding buffer was used to re-suspend the cells. 5 ul of Annexin-V FITC antibody added to the re-suspended cell and incubated in dark for 5 mins. Antibody stained cells were then analyzed using BD Calibur FACs in FITC channel. The flow cytometry experiment confirmed that probe ER-HNO is capable of reducing RNS & ROS level induced by HNO [FIG. 5 (b)].

With “(E)-4-(2-(5,5-difluoro-1,7,9-trimethyl-10-phenyl-5H-5l4,6l4-dipyrrolo[1,2-c:2′,1′-f][1,3,2]diazaborinin-3-yl)vinyl)phenyl 2-(diphenylphosphanyl)benzoate [ER-HNO]” the IC50 (RAW 264.7 cells [1]; RAW 264.7 cells, 24 hours treatment, read-out: IC50 (MTT cell viability)) was 90 µM, the “toxicity toward live RAW 264.7 macrophages cells” value (RAW 264.7 cells [1]; cytotoxicity assays) was “low toxicity” and the “toxicity towards live Hct116 (MTT assay)” value (Hct116 cells [2]) was “non-toxic”. The “fluorescence in Artemia nauplii on exposure to HNO” value (Artemia nauplii) was “strong fluorescence”, the “intracellular fluorescence after exposure to AS” value (RAW 264.7 cells [3]) was “strong intracellular fluorescence” and the “emission intensity of the probe within pH range 4-10” value ([4]; pH 4-10) was “remains unaltered”. For the same substance, the “change in emission intensity in presence of other ROS/RNS (selectivity)” value ([4]; probe 10 uM, 20 mole equivalent of HOCl, H2O2, OH, TBHP, NO3-, NO2-, benzoyl peroxide, S2-, ascorbate) was “no change in emission intensity”, the “intracellular fluorescence after HNO exposure” value (Hct116 cells [5]) was “strong intracellular fluorescence” and the “counteraction of the stabilized expression of SERCA2” value (SERCA2) was “at least 50%”. For the same substance, the “RNS induced by Angeli's Salt (DCFDA staining)” value (Hct116 cells [6]) was “reduced”.
